From publication PMC3117731, “A systems biology approach to dynamic modeling and inter-subject variability of statin pharmacokinetics in human hepatocytes” (BMC Systems Biology, 2011)
Values joined by “and” are separate entries in the source; they are usually repeats but may differ in a detail not shown here. Equal values may be shown once. Read-outs that look alike come from different tables or passages of the source.

Assays:
PON enzymes = test: PON mediated lactone hydrolysis, rate constants estimated in the optimization procedure; assay type: in vitro ADME, human; conditions: nominal value from optimization
Source text: The lactone metabolites are either hydrolyzed chemically to the respective acid metabolites inside (c) or outside (m) the cell, or enzymatically by the contribution of PON enzymes inside the cell. Both reactions are described as first order kinetics(4) [drawing 6]
Therefore, maximal rate constants r max of CYP3A4 hydroxylation and UGT1A3 lactonization were predicted for individual 2 and 3 via the relative abundance approach (equation (11)) using the r max -parameters of individual 1 (Table 3) and the protein concentrations observed on the primary human hepatocytes (Table 4). These parameters were then fixed in the optimization. Further, the rate constants k of PON mediated lactone hydrolysis of individual 2 and 3 were estimated in the optimization procedure.

[1] = test system: primary human hepatocytes; test: Apparent (lumped active transport and passive diffusion) import and export in primary human hepatocytes; assay type: in vitro ADME
Source text: Thus, in the following, mechanisms of active transport and passive diffusion are lumped, resulting in the apparent transport rate for import,(12) [drawing 22]
and in the apparent transport rate for export(13) [drawing 23]
described by the product of apparent rate constant κ im/ex of import or export and extra- or intracellular concentration [drawing 24] , respectively (Figure 3). Consequently, the rate constants κ of import and export are set individually, and were to be estimated in the optimization procedure.

[2] = set-up: method as in PMID 8272408; conditions: estimated from experimental observations; assumed to be same for ASLpOH and ASLoOH; cited from earlier work
CYP3A4 = CYP3A4 (Homo sapiens, UniProt P08684)
CYP3A4, sequence (P08684 2-503 limits assumed): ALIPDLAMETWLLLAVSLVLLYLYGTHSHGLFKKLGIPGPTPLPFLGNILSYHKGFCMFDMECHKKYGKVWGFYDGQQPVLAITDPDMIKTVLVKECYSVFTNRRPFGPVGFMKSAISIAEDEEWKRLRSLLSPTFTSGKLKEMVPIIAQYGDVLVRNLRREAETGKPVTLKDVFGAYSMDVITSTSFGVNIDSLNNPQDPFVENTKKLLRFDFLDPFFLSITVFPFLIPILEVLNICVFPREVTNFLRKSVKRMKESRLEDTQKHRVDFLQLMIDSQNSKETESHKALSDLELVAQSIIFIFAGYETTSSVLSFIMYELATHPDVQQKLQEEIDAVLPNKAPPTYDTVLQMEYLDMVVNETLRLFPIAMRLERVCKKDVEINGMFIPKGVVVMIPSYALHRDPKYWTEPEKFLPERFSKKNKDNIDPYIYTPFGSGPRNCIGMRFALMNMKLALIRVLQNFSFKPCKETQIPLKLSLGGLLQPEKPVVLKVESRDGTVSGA

[3] = test system: primary human hepatocytes; test: Time-series experiment of atorvastatin biotransformation in primary human hepatocytes (extra- and intracellular metabolites by LC-MS-MS, model fit); assay type: in vitro ADME; conditions: individual 1; 10 μM AS
Experimental: Hepatocytes were cultured on collagen gel precoated 6-well plates at a density of 1.5·10^6 cells/well. Cells were allowed to attach to the collagen layer. After transport, culture media was disposed and attached cells were cultured 24 h at 37°C in a humidified chamber with 95%/5% air/CO2 in serum-free medium WME, supplemented with albumin (0.1% (v/v)), penicillin/streptomycin (100 U/ml), stabilized L-glutamine (2 mM), dexamethasone dihydrogenphosphate (0.025% (v/v)) and ITS-X (5 mg insulin, 3.35 μg natrium-selenit, 2.75 mg transferrin and 1 mg ethanolamine), further named SFM.
At specified time-points, three wells were further treated for the preparation of samples for the measurement of extracellular and intracellular metabolites, respectively. SFM media was collected and 50 μL formic acid and deuterated internal standard was added for the further measurement of extracellular metabolites. Cells were harvested in pre-cooled albumin-free SFM, disrupted by freeze/thaw and ultra-sonification and centrifuged. The supernatant was used for the determination of intracellular metabolites.
MS-MS analysis was performed on an Esquire HCT ultra ion trap mass spectrometer (Bruker Daltonics, Bremen, Germany) coupled to an HPLC 1100-System (Agilent, Waldbronn, Germany) consisting of binary pump G1312A, degasser G1379A, well-plate sampler G1367A and column thermostat G1330B. […] The following parameters were applied: nebulizer 45 psi, dry gas 10 l/min, dry temperature 300°C, capillary 4100 V, scan range 200 - 600 m/z.

[4] = Individual 1, nominal value from optimization
[5] = Individual 2, nominal value from optimization
[6] = Individual 3, nominal value from optimization
[7] = Individual 1, nominal value from optimization, per ml intracellular volume
[8] = Individual 2, predicted via relative abundance approach from individual 1 and CYP3A4 protein concentration

κex (apparent rate constant of export) [1, 4]	κim (apparent rate constant of import) [1, 4]	κex (apparent rate constant of export) [1, 5]	κim (apparent rate constant of import) [1, 5]	κex (apparent rate constant of export) [1, 6]	κim (apparent rate constant of import) [1, 6]	rmax,3A4 (maximal rate of CYP3A4 hydroxylation to the labelled metabolite) (CYP3A4; [7])	rmax,3A4 (maximal rate of CYP3A4 hydroxylation to the labelled metabolite) (CYP3A4; [8])	ratio of intracellular AUC 0-600 min to extracellular AUC 0-600 min [3]	ratio of intracellular c max to extracellular c max [3]	Compound	κPON (rate constant of PON mediated lactone hydrolysis) (PON enzymes; Individual 1)	κPON (rate constant of PON mediated lactone hydrolysis) (PON enzymes; Individual 2)	κPON (rate constant of PON mediated lactone hydrolysis) (PON enzymes; Individual 3)	kCR (rate constant of spontaneous hydrolysis of the lactone) [2]
2.67 µL/min	26.1 µL/min	86.3 µL/min	530 µL/min	0.77 µL/min	2.43 µL/min	2756 pmol/min/mL	1640 pmol/min/mL	–	–	CC(C)c1c(C(=O)Nc2ccccc2O)c(-c2ccccc2)c(-c2ccc(F)cc2)n1CC[C@@H]1C[C@@H](O)CC(=O)O1 [ASLoOH, ortho-hydroxy-atorvastatin lactone]	–	–	–	–
1.13 µL/min and 33.7 µL/min	–	1.01 µL/min and 7.24 µL/min	–	0.59 µL/min and 8.59 µL/min	–	1228 pmol/min/mL	731 pmol/min/mL	38.2	34.5	CC(C)c1c(C(=O)Nc2ccc(O)cc2)c(-c2ccccc2)c(-c2ccc(F)cc2)n1CC[C@@H]1C[C@@H](O)CC(=O)O1 [ASLpOH, para-hydroxy-atorvastatin lactone]	–	–	–	–
1.60 µL/min	0.39 µL/min	3.62 µL/min	0.22 µL/min	0.91 µL/min	0.00 µL/min	3345 pmol/min/mL	1991 pmol/min/mL	4.5	2.5	CC(C)c1c(C(=O)Nc2ccccc2O)c(-c2ccccc2)c(-c2ccc(F)cc2)n1CCC(O)CC(O)CC(=O)O (stereo not shown) [ASoOH, ortho-hydroxy-atorvastatin acid]	–	–	–	–
0.80 µL/min	3.96 µL/min	1.25 µL/min	2.01 µL/min	0.52 µL/min	2.53 µL/min	1108 pmol/min/mL	660 pmol/min/mL	–	–	CC(C)c1c(C(=O)Nc2ccc(O)cc2)c(-c2ccccc2)c(-c2ccc(F)cc2)n1CC[C@@H](O)C[C@@H](O)CC(=O)O [ASpOH, para-hydroxy-atorvastatin acid]	–	–	–	–
–	–	–	–	–	–	–	–	–	–	hydroxy-atorvastatin lactones (para- and ortho-) [ASLOH]	280 10^-3 min^-1	545 10^-3 min^-1	82.9 10^-3 min^-1	–

Compound	κex (apparent rate constant of export) [1, 4]	κim (apparent rate constant of import) [1, 4]	κex (apparent rate constant of export) [1, 5]	κim (apparent rate constant of import) [1, 5]	κex (apparent rate constant of export) [1, 6]	κim (apparent rate constant of import) [1, 6]	rmax,3A4 (maximal rate of CYP3A4 hydroxylation to the labelled metabolite) (CYP3A4; [7])	rmax,3A4 (maximal rate of CYP3A4 hydroxylation to the labelled metabolite) (CYP3A4; [8])	ratio of intracellular AUC 0-600 min to extracellular AUC 0-600 min [3]	ratio of intracellular c max to extracellular c max [3]	κPON (rate constant of PON mediated lactone hydrolysis) (PON enzymes; Individual 1)	κPON (rate constant of PON mediated lactone hydrolysis) (PON enzymes; Individual 2)	κPON (rate constant of PON mediated lactone hydrolysis) (PON enzymes; Individual 3)	kCR (rate constant of spontaneous hydrolysis of the lactone) [2]
CC(C)c1c(C(=O)Nc2ccccc2)c(-c2ccccc2)c(-c2ccc(F)cc2)n1CC[C@@H]1C[C@@H](O)CC(=O)O1 [ASL, atorvastatin lactone]	21.8 µL/min	275 µL/min	2.48 µL/min	25.8 µL/min	10.5 µL/min	82.7 µL/min	–	–	–	–	308 10^-3 min^-1	99.2 10^-3 min^-1	0.00 10^-3 min^-1	0.0025 min⁻¹
